The values that follow come from ChEMBL document CHEMBL4342499, “Novel Stapling by Lysine Tethering Provides Stable and Low Hemolytic Cationic Antimicrobial Peptides” (J Med Chem, 2020).

In test [1] the test system is Staphylococcus aureus. Description: Antimicrobial activity against Staphylococcus aureus assessed as inhibition of microbial growth incubated for 16 hrs by microdilution method. The test is classed as functional. A general note: Broth dilution looks for growth in wells or tubes with falling amounts of substance.
For test [2], the system named is Staphylococcus aureus. Put plainly: Antimicrobial activity against methicillin-resistant Staphylococcus aureus assessed as inhibition of microbial growth incubated for 16 hrs by microdilution method. It is filed as functional.
The subject of another test is Listeria monocytogenes. Description: Antimicrobial activity against Listeria monocytogenes assessed as inhibition of microbial growth incubated for 16 hrs by microdilution method. The test is classed as functional.
The subject of test [3] is Escherichia coli. Put plainly: Antimicrobial activity against Escherichia coli assessed as inhibition of microbial growth incubated for 16 hrs by microdilution method. It is filed as functional.
For another test, the system named is Pseudomonas aeruginosa. Put plainly: Antimicrobial activity against Pseudomonas aeruginosa assessed as inhibition of microbial growth incubated for 16 hrs by microdilution method. The test is classed as functional.
Test [4] has as its system Escherichia coli.

Take `CN[C@H](CC(C)C)C(=O)N[C@H]1C(=O)N[C@@H](CC(N)=O)C(=O)N[C@H]2C(=O)N[C@H]3C(=O)N[C@H](C(=O)N[C@H](C(=O)O)c4cc(O)cc(O)c4-c4cc3ccc4O)[C@H](O)c3ccc(c(Cl)c3)Oc3cc2cc(c3O[C@@H]2O[C@H](CO)[C@@H](O)[C@H](O)[C@H]2O[C@H]2C[C@](C)(N)[C@H](O)[C@H](C)O2)Oc2ccc(cc2Cl)[C@H]1O` [VANCOMYCIN]: the MIC99.9 in the test with Staphylococcus aureus [1] was 2 µg/mL; with Staphylococcus aureus [2] it was 2 µg/mL; in the test with Listeria monocytogenes, 1 µg/mL; with Escherichia coli [3], greater than 128 µg/mL; in the test on Pseudomonas aeruginosa, greater than 128 µg/mL; in the test with Escherichia coli [4], greater than 128 µg/mL.

Consider `CCN1CCN(C(=O)N[C@@H](C(=O)N[C@@H]2C(=O)N3C(C(=O)O)=C(CSc4nnnn4C)CS[C@H]23)c2ccc(O)cc2)C(=O)C1=O` [CEFOPERAZONE], for which the MIC99.9 with Staphylococcus aureus [1] is 0.5 µg/mL; in the test on Staphylococcus aureus [2] it was greater than 128 µg/mL; with Listeria monocytogenes, 16 µg/mL; in the test on Escherichia coli [3], 0.125 µg/mL; in the test on Pseudomonas aeruginosa, 2 µg/mL; with Escherichia coli [4], greater than 128 µg/mL.
